Source: US12139520B2 (priority 2020, dated 2024)
Bridge positions count the residues as written; N and C are the ends. Square brackets hold non-standard residues; d marks the D form. Peptide text beside a SMILES is read from it. Hyp = O=C(O)[C@@H]1C[C@@H](O)CN1

Experiments:
hAM1 receptor = hAM1 receptor (Homo sapiens, UniProt O60895+Q16602); assay: cAMP assay for in vitro receptor activation, hAM1-R; format: cell-based; conditions: cAMP assay, hAM1 receptor; read-out: hAM1R EC50
Procedure, shortened: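 Stable hAM1 cells (monoclonal) plated 8000/well; buffer DPBS, 0.05% casein, 0.5 mM IBMX; cAMP read-out.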

[1] = Physical stability of peptide analogues (Thioflavin T fibrillation); format: physicochemical; conditions: maximum ThT signal normalized between hAMY maximum and buffer background; 40° C., shaking, four days; pH 7 per table title
Procedure, shortened: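 Maximum ThT emission at 480 nm, after LOESS smoothing, is given as percent of the span from buffer background to hAMY. Conditions: 50 mM buffer at pH 4 or 7, 4 μM dye, 40 °C, repeated shaking, readings every 10 min for four days.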

hAM1 receptor, sequence (Q16602 23-461): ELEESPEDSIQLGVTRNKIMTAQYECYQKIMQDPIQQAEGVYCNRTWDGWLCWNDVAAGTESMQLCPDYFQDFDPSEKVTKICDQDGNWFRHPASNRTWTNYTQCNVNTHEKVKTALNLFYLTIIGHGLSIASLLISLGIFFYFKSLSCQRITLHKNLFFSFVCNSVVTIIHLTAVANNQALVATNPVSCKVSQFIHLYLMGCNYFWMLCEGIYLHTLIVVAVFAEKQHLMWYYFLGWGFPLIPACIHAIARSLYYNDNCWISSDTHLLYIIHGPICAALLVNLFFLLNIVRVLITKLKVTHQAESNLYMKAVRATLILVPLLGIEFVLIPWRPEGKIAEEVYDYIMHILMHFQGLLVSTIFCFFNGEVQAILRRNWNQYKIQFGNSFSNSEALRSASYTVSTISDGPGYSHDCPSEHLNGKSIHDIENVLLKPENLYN
hAM1 receptor, sequence (O60895 43-175 partner): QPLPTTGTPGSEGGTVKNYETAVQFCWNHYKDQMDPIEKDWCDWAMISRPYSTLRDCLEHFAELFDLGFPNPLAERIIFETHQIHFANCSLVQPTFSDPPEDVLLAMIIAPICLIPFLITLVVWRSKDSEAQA

Row | Structure (SMILES) | EC50 (hAM1 receptor) [µM] | Max ThT signal (%) [1] [%]
1 | CC[C@H](C)[C@H](NC(=O)[C@H](CCCCN)NC(=O)[C@H](CO)NC(=O)[C@H](CCCNC(=N)N)NC(=O)[C@@H]1CCCN1C(=O)[C@H](C)NC(=O)[C@@H](NC(=O)[C@H](CC(N)=O)NC(=O)[C@H](CC(=O)O)NC(=O)[C@H](CCCCN)NC(=O)[C@H](CC(=O)O)NC(=O)[C@H](CCCCN)NC(=O)[C@H](CC(=O)O)NC(=O)[C@@H](NC(=O)[C@H](Cc1ccccc1)NC(=O)[C@H](CCC(N)=O)NC(=O)[C@H](Cc1ccc(O)cc1)NC(=O)[C@@H](NC(=O)[C@H](CCC(N)=O)NC(=O)[C@H](Cc1c[nH]cn1)NC(=O)[C@H](C)NC(=O)[C@H](CC(C)C)NC(=O)[C@H](Cc1c[nH]c2ccccc12)NC(=O)[C@H](CCC(N)=O)NC(=O)[C@@H](NC(=O)[C@@H](NC(=O)[C@@H]1CSSC[C@H](NC(=O)CN)C(=O)N[C@@H](CCCNC(=N)N)C(=O)N[C@@H]([C@@H](C)O)C(=O)NCC(=O)N[C@@H]([C@@H](C)O)C(=O)N1)[C@@H](C)O)C(C)C)[C@@H](C)CC)[C@@H](C)O)C(C)C)C(=O)NCC(=O)N1CCC[C@H]1C(=O)N[C@@H](CC(N)=O)C(=O)NCC(=O)N1C[C@H](O)C[C@H]1C(N)=O [compound 355] (H-GCRTGTCTVQWLAHQIYQFTDKDKDNVAPRSKIGPNG[Hyp]-NH2; disulfide 2-7; N-terminus assumed) | > 5 | 25.350
2 | CC[C@H](C)[C@H](NC(=O)[C@H](CC(N)=O)NC(=O)[C@@H](NC(=O)[C@H](CCCNC(=N)N)NC(=O)[C@@H]1CCCN1C(=O)[C@H](C)NC(=O)[C@@H](NC(=O)[C@H](CC(N)=O)NC(=O)[C@H](CC(=O)O)NC(=O)[C@H](CCCCN)NC(=O)[C@H](CC(=O)O)NC(=O)[C@H](CCCCN)NC(=O)[C@H](CC(=O)O)NC(=O)[C@@H](NC(=O)[C@H](Cc1ccccc1)NC(=O)[C@H](CCC(N)=O)NC(=O)[C@H](Cc1ccc(O)cc1)NC(=O)[C@@H](NC(=O)[C@H](CCC(N)=O)NC(=O)[C@H](Cc1c[nH]cn1)NC(=O)[C@H](C)NC(=O)[C@H](CC(C)C)NC(=O)[C@H](Cc1c[nH]c2ccccc12)NC(=O)[C@H](CCC(N)=O)NC(=O)[C@@H](NC(=O)[C@@H](NC(=O)[C@@H]1CSSC[C@H](NC(=O)CN)C(=O)N[C@@H](CCCNC(=N)N)C(=O)N[C@@H]([C@@H](C)O)C(=O)NCC(=O)N[C@@H]([C@@H](C)O)C(=O)N1)[C@@H](C)O)C(C)C)[C@@H](C)CC)[C@@H](C)O)C(C)C)[C@@H](C)O)C(=O)NCC(=O)N1CCC[C@H]1C(=O)N[C@@H](CCC(N)=O)C(=O)NCC(=O)N[C@@H](Cc1ccc(O)cc1)C(N)=O [compound 356] (H-GCRTGTCTVQWLAHQIYQFTDKDKDNVAPRTNIGPQGY-NH2; disulfide 2-7) | > 5 | 1.250
3 | CC[C@H](C)[C@H](NC(=O)[C@H](CCCCN)NC(=O)[C@@H](NC(=O)[C@H](CCCNC(=N)N)NC(=O)[C@@H]1CCCN1C(=O)[C@H](C)NC(=O)[C@@H](NC(=O)[C@H](CC(N)=O)NC(=O)[C@H](CC(=O)O)NC(=O)[C@H](CCCCN)NC(=O)[C@H](CC(=O)O)NC(=O)[C@H](CCCCN)NC(=O)[C@H](CC(=O)O)NC(=O)[C@@H](NC(=O)[C@H](Cc1ccccc1)NC(=O)[C@H](CCC(N)=O)NC(=O)[C@H](Cc1ccc(O)cc1)NC(=O)[C@@H](NC(=O)[C@H](CCC(N)=O)NC(=O)[C@H](Cc1c[nH]cn1)NC(=O)[C@H](C)NC(=O)[C@H](CC(C)C)NC(=O)[C@H](Cc1c[nH]c2ccccc12)NC(=O)[C@H](CCC(N)=O)NC(=O)[C@@H](NC(=O)[C@@H](NC(=O)[C@@H]1CSSC[C@H](NC(=O)CN)C(=O)N[C@@H](CCCNC(=N)N)C(=O)N[C@@H]([C@@H](C)O)C(=O)NCC(=O)N[C@@H]([C@@H](C)O)C(=O)N1)[C@@H](C)O)C(C)C)[C@@H](C)CC)[C@@H](C)O)C(C)C)[C@@H](C)O)C(=O)NCC(=O)N1CCC[C@H]1C(=O)N[C@@H](CCC(N)=O)C(=O)NCC(=O)N1C[C@H](O)C[C@H]1C(N)=O [compound 357] (H-GCRTGTCTVQWLAHQIYQFTDKDKDNVAPRTKIGPQG[Hyp]-NH2; disulfide 2-7; N-terminus assumed) | > 5 | 19.750
4 | CC[C@H](C)[C@H](NC(=O)[C@H](CC(N)=O)NC(=O)[C@H](CO)NC(=O)[C@H](CCCNC(=N)N)NC(=O)[C@@H]1CCCN1C(=O)[C@H](C)NC(=O)[C@@H](NC(=O)[C@H](CC(N)=O)NC(=O)[C@H](CC(=O)O)NC(=O)[C@H](CCCCN)NC(=O)[C@H](CC(=O)O)NC(=O)[C@H](CCCCN)NC(=O)[C@H](CC(=O)O)NC(=O)[C@@H](NC(=O)[C@H](Cc1ccccc1)NC(=O)[C@H](CCC(N)=O)NC(=O)[C@H](Cc1ccc(O)cc1)NC(=O)[C@@H](NC(=O)[C@H](CCC(N)=O)NC(=O)[C@H](Cc1c[nH]cn1)NC(=O)[C@H](C)NC(=O)[C@H](CC(C)C)NC(=O)[C@H](Cc1c[nH]c2ccccc12)NC(=O)[C@H](CCC(N)=O)NC(=O)[C@@H](NC(=O)[C@@H](NC(=O)[C@@H]1CSSC[C@H](NC(=O)CN)C(=O)N[C@@H](CCCNC(=N)N)C(=O)N[C@@H]([C@@H](C)O)C(=O)NCC(=O)N[C@@H]([C@@H](C)O)C(=O)N1)[C@@H](C)O)C(C)C)[C@@H](C)CC)[C@@H](C)O)C(C)C)C(=O)NCC(=O)N1CCC[C@H]1C(=O)N[C@@H](CCC(N)=O)C(=O)NCC(=O)N1C[C@H](O)C[C@H]1C(N)=O [compound 359] (H-GCRTGTCTVQWLAHQIYQFTDKDKDNVAPRSNIGPQG[Hyp]-NH2; disulfide 2-7; N-terminus assumed) | > 5 | 20.350
5 | CC[C@H](C)[C@H](NC(=O)[C@H](CCC(N)=O)NC(=O)[C@H](Cc1c[nH]cn1)NC(=O)[C@H](C)NC(=O)[C@H](CC(C)C)NC(=O)[C@H](Cc1c[nH]c2ccccc12)NC(=O)[C@H](CCC(N)=O)NC(=O)[C@@H](NC(=O)[C@@H](NC(=O)[C@@H]1CSSC[C@H](NC(=O)CN)C(=O)N[C@@H](CCCNC(=N)N)C(=O)N[C@@H]([C@@H](C)O)C(=O)NCC(=O)N[C@@H]([C@@H](C)O)C(=O)N1)[C@@H](C)O)C(C)C)C(=O)N[C@@H](Cc1ccc(O)cc1)C(=O)N[C@@H](CCC(N)=O)C(=O)N[C@@H](Cc1ccccc1)C(=O)N[C@H](C(=O)N[C@@H](CC(=O)O)C(=O)N[C@@H](CCCCN)C(=O)N[C@@H](CC(=O)O)C(=O)N[C@@H](CCCCN)C(=O)N[C@@H](CC(=O)O)C(=O)N[C@@H](CC(N)=O)C(=O)N[C@H](C(=O)N[C@@H](C)C(=O)N1CCC[C@H]1C(=O)N[C@@H](CCCNC(=N)N)C(=O)N[C@@H](CO)C(=O)N[C@@H](CC(N)=O)C(=O)N[C@H](C(=O)N[C@@H](CO)C(=O)N1CCC[C@H]1C(=O)N[C@@H](CC(N)=O)C(=O)NCC(=O)N1C[C@H](O)C[C@H]1C(N)=O)C(C)C)C(C)C)[C@@H](C)O [compound 360] (H-GCRTGTCTVQWLAHQIYQFTDKDKDNVAPRSNVSPNG[Hyp]-NH2; disulfide 2-7) | > 5 | 26.350
